Source: US20250115572A1, “SPIROCYCLIC PIPERIDINYL DERIVATIVES AS COMPLEMENT FACTOR B INHIBITORS AND USES THEREOF” (Novartis AG, priority 2022, published 2025)

Molecular target: Recombinant human factor B (Homo sapiens (Human), UniProt P00751)
Test: Human Complement Factor B TR-FRET Assay
Format: binding
Details: displacement of labeled factor B ligand; * = assay behavior at and above the stated concentration prevented IC50 determination; read-out: hFactor-B TR-FRET Qualified IC50
Procedure: The time-gated decrease in fluorescence intensity related to the competition between labeled and unlabeled factor B ligands was recorded at both 620 nm and 665 nm, 70 μs after excitation at 337 nm using a microplate spectrofluorimeter.

Sequence of Recombinant human factor B (P00751 26-764): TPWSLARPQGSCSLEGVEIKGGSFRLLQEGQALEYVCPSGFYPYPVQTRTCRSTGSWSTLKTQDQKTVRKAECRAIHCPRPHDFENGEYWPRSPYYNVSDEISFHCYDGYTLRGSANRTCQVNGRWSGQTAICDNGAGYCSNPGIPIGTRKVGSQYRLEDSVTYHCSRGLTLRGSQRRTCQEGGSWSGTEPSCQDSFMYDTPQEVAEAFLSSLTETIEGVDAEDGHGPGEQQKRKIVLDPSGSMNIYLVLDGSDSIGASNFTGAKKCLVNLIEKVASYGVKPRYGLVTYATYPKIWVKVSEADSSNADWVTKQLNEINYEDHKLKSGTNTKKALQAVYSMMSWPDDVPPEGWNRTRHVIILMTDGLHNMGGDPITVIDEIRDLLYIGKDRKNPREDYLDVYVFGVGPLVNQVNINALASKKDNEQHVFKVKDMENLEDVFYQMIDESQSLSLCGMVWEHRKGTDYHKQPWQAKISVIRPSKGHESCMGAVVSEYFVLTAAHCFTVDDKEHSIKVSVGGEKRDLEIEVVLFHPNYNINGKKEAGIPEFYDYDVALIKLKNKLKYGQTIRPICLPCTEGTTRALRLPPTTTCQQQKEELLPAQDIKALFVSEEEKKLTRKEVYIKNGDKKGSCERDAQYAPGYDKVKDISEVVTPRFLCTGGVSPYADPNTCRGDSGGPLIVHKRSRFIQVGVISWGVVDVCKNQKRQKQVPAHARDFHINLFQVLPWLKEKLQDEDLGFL

Compound | IC50 [nM]
Cc1cc(C2CC2)c(CN2CCC3(C[C@@H]2c2ccc(-c4nnn[nH]4)nc2)CC(F)(F)C3)c2cc[nH]c12 (single isomer, unassigned) [Ex-63] | 434
Cc1cc(C2CC2)c(CN2CCC3(CC2c2ccc(-c4nnn[nH]4)nc2)CC(F)(F)C3)c2cc[nH]c12 (racemic) [Ex-61, (SR)-6-(6-(1H-tetrazol-5-yl)pyridin-3-yl)-7-((5-cyclopropyl-7-methyl-1H-indol-4-yl)methyl)-2,2-difluoro-7-azaspiro[3.5]nonane] | 3.8
COc1cc(C)c2[nH]ccc2c1CN1CCC2(CCC(F)(F)C2)C[C@H]1c1ccc(C(=O)O)cc1 (single isomer, unassigned) [Ex-20] | 7.6
COc1cc(C)c2[nH]ccc2c1CN1CCC2(CCC(F)(F)C2)C[C@@H]1c1ccc(C(=O)O)cc1 (single isomer, unassigned) [Ex-19] | 1460
COc1cc(C)c2[nH]ccc2c1CN1CCC2(CC1c1ccc(C(F)F)cc1)CC(F)(F)C2 (racemic) [Ex-52] | 172
Cc1cc(C2CC2)c(CN2CCC3(C[C@@H]2c2ccc(-c4ccn[nH]4)cc2)CC(F)(F)C3)c2cc[nH]c12 (single isomer, unassigned) [Ex-30] | > 100
Cc1cc(C2CC2(F)F)c(CN2CCC3(C[C@H]2c2ccc(C(=O)O)cc2)CC(F)(F)C3)c2cc[nH]c12 (single isomer, unassigned) [Ex-24] | 31.4
COc1cc(C)c2[nH]ccc2c1CN1CCC2(C[C@@H]1c1ccc(C(=O)O)cc1)CC(F)(F)C2 [Ex-6, (R)-4-(2,2-difluoro-7-((5-methoxy-7-methyl-1H-indol-4-yl)methyl)-7-azaspiro[3.5]nonan-6-yl)benzoic acid] | 714
COc1cc(C)c2[nH]ccc2c1CN1CCC2(CC1c1ccc(-c3nnn[nH]3)cc1)CC(F)(F)C2 (racemic) [Ex-54, (SR)-6-(4-(1H-tetrazol-5-yl)phenyl)-2,2-difluoro-7-((5-methoxy-7-methyl-1H-indol-4-yl)methyl)-7-azaspiro[3.5]nonane] | 2.2
COc1cc(C)c2[nH]ccc2c1CN1CCC2(C[C@H]1c1ccc(C(=O)O)cc1)CC(C)(O)C2 (single isomer, unassigned) [Ex-15] | 105
COc1cc(C)c2[nH]ccc2c1CN1CCC2(C[C@H]1c1ccc(C(=O)O)cc1)CC(F)(F)C2 [Ex-5, (S)-4-(2,2-difluoro-7-((5-methoxy-7-methyl-1H-indol-4-yl)methyl)-7-azaspiro[3.5]nonan-6-yl)benzoic acid] | 0.5
COc1cc(C)c2[nH]ccc2c1CN1CCC2(C[C@H]1c1ccccc1)CC(F)(F)C2 (single isomer, unassigned) [Ex-37] | 11.2
COc1cc(C)c2[nH]ccc2c1CN1CCC2(C[C@@H]1c1ccc(C(=O)O)cc1)CC(C)(O)C2 (single isomer, unassigned) [Ex-14] | 10000
COc1cc(C)c2[nH]ccc2c1CN1CCC2(CCC(F)(F)C2)C[C@@H]1c1ccc(C(=O)O)cc1 (single isomer, unassigned) [Ex-17] | 320
COc1cc(C)c2[nH]ccc2c1CN1CCC2(CC1c1ccc(-c3nnn[nH]3)nc1)CC(F)(F)C2 (racemic) [Ex-58, (SR)-6-(6-(1H-tetrazol-5-yl)pyridin-3-yl)-2,2-difluoro-7-((5-methoxy-7-methyl-1H-indol-4-yl)methyl)-7-azaspiro[3.5]nonane] | 3.8
COc1cc(C)c2[nH]ccc2c1CN1CCC2(C[C@@H]1c1ccc(C(=O)O)cc1)CC(C)(F)C2 (single isomer, unassigned) [Ex-2] | 6810
COc1cc(C)c2[nH]ccc2c1CN1CCC2(CC(F)C2)C[C@H]1c1ccc(C(=O)O)cc1 (single isomer, unassigned) [Ex-9, 4-(2-fluoro-7-((5-methoxy-7-methyl-1H-indol-4-yl)methyl)-7-azaspiro[3.5]nonan-6-yl)benzoic acid] | 2.1
COc1cc(C)c2[nH]ccc2c1CN1CCC2(COC2)C[C@@H]1c1ccc(C(=O)O)cc1 [Ex-12] | 5300
COc1cc(C)c2[nH]ccc2c1CN1CCC2(C[C@H]1c1ccc(-c3nnn[nH]3)nc1)CC(F)(F)C2 (single isomer, unassigned) [Ex-59] | 2.1
